Experimental data: ChEMBL document CHEMBL3120142 (J Med Chem, 2014)

What was measured:
[1] = tested on: Influenza A virus; experiment: microbe, parasite or virus in culture; conditions: A/Berlin/55/08(H1N1), MDCK, 48 h
[2] = tested on: Influenza A virus; conditions: mdck

Row | Compound | EC50 [1] [µM] | EC50 [2] [µM]
1 | CCC(CC)O[C@@H]1C=C(C(=O)O)C[C@H](NC(=N)N)[C@H]1NC(C)=O | 3.31 | –
2 | CCC(CC)O[C@@H]1C=C(C(=O)O)C[C@H](NC(C)=N)[C@H]1NC(C)=O | 4.82 | –
3 | CCC(CC)O[C@@H]1C=C(C(=O)O)C[C@H](N)[C@H]1NC(C)=O [OSELTAMIVIR CARBOXYLATE] | > 100 | –
4 | CC(=O)N[C@H]1[C@H]([C@H](O)[C@H](O)CO)OC(C(=O)O)=C[C@@H]1NC(=N)N [ZANAMIVIR] | – | 1.22
